Data published in patent publication US20090275586A1, “HETEROCYCLIC INHIBITORS OF PDE4” (KALYPSYS, INC., priority 2006, published 2009).

Legend:
PDE4B = biological target: T1, PDE4B (Homo sapiens, UniProt Q07343); assay: PDE4 IMAP Assay; type: biochemical; conditions: 2 h; Activity at 10 μM; catalytic domain of PDE4B; read-out: PDE IMAP Assay
T1 construct: hexa-histidine (His6) (N); made in house
Text: Compounds may be screened for functional potency in in vitro biochemical assays for their ability to inhibit the activity of phosphodiesterase (PDE) enzymes. A commercial PDE assay, Molecular Device's PDE IMAP assay, was modified and utilized to measure the inhibitory activity of compounds on PDE isoforms. The IMAP technology is based on the high affinity binding of phosphate by immobilized metal (MIII) coordination complexes on nanoparticles. This IMAP “binding reagent” complexes with phosphate groups on the nucleotide monophosphates generated in the reaction. Such binding causes a change in the rate of the molecular motion of the nucleotide, and results in an increase in the fluorescence polarization value observed for the fluorescent label attached to the substrate. PDE inhibitors prevent the generation of nucleotide monophosphates and the subsequent increase in polarization value observed for the fluorescent label attached to the substrate. The catalytic domain of PDE4B was fused to an amino-terminus hex-histadine affinity tag and purified. PDE4B enzyme was incubated with compounds for 10 minutes. Fluorescently labeled cyclic AMP substrates were then added to the PDE enzyme mix and incubated for 2 hours at room temperature. IMAP binding reagent was then added to the enzyme mix, incubated for 10-30 minutes and fluorescent polarization of the fluorescently labeled substrate was read either with the Perkin Elmer Viewlux or Molecular Devices Acquest or Analyst. Roflumilast and Rolipram are the positive controls used in the assay.

PDE4 = PDE4 Cellular CNG Assay; type: cell-based; conditions: Activity at 10 μM; HEK293 cells stably expressing the CNG channel
Text: Compounds may be screened for functional potency in in vitro cellular assays for their ability to inhibit the activity of phosphodiesterase (PDE) enzymes. A commercial membrane potential assay, Molecular Device's membrane potential assay kit, was modified and utilized to measure the inhibitory activity of compounds on PDE isoforms in living cells. The cellular assay utilizes genetically engineered cyclic nucleotide-gated (CNG) channels as cyclic-AMP (cAMP) sensors. On binding cAMP these ion channels open, allowing the flow of cations across the plasma membrane. CNG channel activity can be monitored by measuring Ca^2+ influx in cell populations. The influx of Ca causes a change in membrane potential that is measured by voltage sensitive dyes. PDE inhibitors prevent the degradation of cAMP that is generated by adenylyl cyclases that are activated upon stimulation of G protein-coupled receptors (GPCR) linked to the cAMP pathway. In brief, Molecular Device's membrane potential dye was added to HEK293 cells stably expressing the CNG channel and incubated for 2 hours at room temperature. Test compounds were then added to the cells and incubated for 15 minutes. A GPCR agonist was then added to the cells to stimulate the cAMP pathway and incubated for 45 minutes. Fluorescent measurements were then conducted with either the Molecular Devices Acquest or Analyst. PDE inhibitors will inhibit the degradation of cAMP and cause an increase in fluorescent signal. Roflumilast and Rolipram are the positive controls used in the assay.

T1 sequence (Q07343 330-659 limits assumed, species assumed): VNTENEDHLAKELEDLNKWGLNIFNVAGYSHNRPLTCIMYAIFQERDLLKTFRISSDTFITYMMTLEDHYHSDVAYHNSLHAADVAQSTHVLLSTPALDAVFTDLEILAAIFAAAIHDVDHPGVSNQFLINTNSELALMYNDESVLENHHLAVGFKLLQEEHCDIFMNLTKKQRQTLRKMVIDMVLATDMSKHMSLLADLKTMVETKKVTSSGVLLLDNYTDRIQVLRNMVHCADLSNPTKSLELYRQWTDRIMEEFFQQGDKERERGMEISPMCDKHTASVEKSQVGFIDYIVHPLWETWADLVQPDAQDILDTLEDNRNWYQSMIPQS

For `CSc1nc(NC2CCCCC2)c2sccc2n1` [Example 13, N-cyclohexyl-2-(methylthio)thieno[3,2-d]pyrimidin-4-amine], the inhibition at 10 µM (PDE4B) was no less than 50% and the “Cellular CNG Assay” value (PDE4) was “+ (+indicates Activity ≧ 50% at 10 μM)”.

In the case of `COc1ccc(S(=O)(=O)N2CC(C)(C)Oc3ccc(NC(=O)c4cccnc4SC)cc32)cc1OC` [Example 10, N-(4-(3,4-dimethoxyphenylsulfonyl)-2,2-dimethyl-3,4-dihydro-2H-benzo[b][1,4]oxazin-6-yl)-2-(methylthio)nicotinamide], the inhibition at 10 µM (PDE4B) is reported as no less than 50% and the “Cellular CNG Assay” value (PDE4) is reported as “+ (+indicates Activity ≧ 50% at 10 μM)”.

For `CCc1cccc(C)c1Nc1cc(NCCc2ccc(OC)c(OC)c2)ncn1` [Example 6, N4-(3,4-dimethoxyphenethyl)-N6-(2-ethyl-6-methylphenyl)pyrimidine-4,6-diamine], the inhibition at 10 µM (PDE4B) was no less than 50% and the “Cellular CNG Assay” value (PDE4) was “+ (+indicates Activity ≧ 50% at 10 μM)”.

`CC(C)CCn1c(=O)c2ccccc2n2c(CN3CCN(c4ncccn4)CC3)nnc12` [Example 26, 4-Isopentyl-1-((4-(pyrimidin-2-yl)piperazin-1-yl)methyl)-[1,2,4]triazolo[4,3-a]quinazolin-5(4H)-one] was tested, and the inhibition at 10 µM (PDE4B) was no less than 50% and the “Cellular CNG Assay” value (PDE4) was “+ (+indicates Activity ≧ 50% at 10 μM)”.

For `COc1ccc(CN(Cc2ccncc2)C(=O)c2ccc3[nH]c(C)c(C)c3c2)cc1OC` [Example 3, N-(3,4-dimethoxybenzyl)-2,3-dimethyl-N-(pyridin-4-ylmethyl)-1H-indole-5-carboxamide], the inhibition at 10 µM (PDE4B) was no less than 50% and the “Cellular CNG Assay” value (PDE4) was “+ (+indicates Activity ≧ 50% at 10 μM)”.

For `COc1ccc(-c2cc(C(F)(F)F)n3ncc(C(=O)Nc4cccc(CCC#N)c4)c3n2)cc1OC` [Example 18, N-(3-(2-cyanoethyl)phenyl)-5-(3,4-dimethoxyphenyl)-7-(trifluoromethyl)pyrazolo[1,5-a]pyrimidine-3-carboxamide], the inhibition at 10 µM (PDE4B) was no less than 50% and the “Cellular CNG Assay” value (PDE4) was “+ (+indicates Activity ≧ 50% at 10 μM)”.

In the case of `COc1ccc(CN(C(=O)c2cccc3ccccc23)C2CCCC2)cc1OC(C)C` [Example 4, N-cyclopentyl-N-(3-isopropoxy-4-methoxybenzyl)-1-naphthamide], the inhibition at 10 µM (PDE4B) is reported as no less than 50% and the “Cellular CNG Assay” value (PDE4) is reported as “+ (+indicates Activity ≧ 50% at 10 μM)”.

In the case of `CCOc1ncccc1C(=O)Nc1ccc(S(=O)(=O)Nc2nccs2)cc1` [Example 20, 2-Ethoxy-N-(4-(N-thiazol-2-ylsulfamoyl)phenyl)nicotinamide], the inhibition at 10 µM (PDE4B) is reported as no less than 50% and the “Cellular CNG Assay” value (PDE4) is reported as “+ (+indicates Activity ≧ 50% at 10 μM)”.

With `COC(=O)c1ccc(Cn2c(=O)c(=O)n(C(C)C)c3ccc(C(F)(F)F)cc32)cc1` [Example 16, Methyl 4-((4-isopropyl-2,3-dioxo-7-(trifluoromethyl)-3,4-dihydroquinoxalin-1(2H)-yl)methyl)benzoate] the inhibition at 10 µM (PDE4B) was no less than 50% and the “Cellular CNG Assay” value (PDE4) was “+ (+indicates Activity ≧ 50% at 10 μM)”.

With `O=C(c1cccc(N2CCNC2=O)c1)N(CCC1=CCCCC1)Cc1cc2cc3c(cc2nc1N1CCOCC1)OCO3` [Example 19, N-(2-cyclohexenylethyl)-N-((6-morpholino-[1,3]dioxolo[4,5-g]quinolin-7-yl)methyl)-3-(2-oxoimidazolidin-1-yl)benzamide] the inhibition at 10 µM (PDE4B) was no less than 50% and the “Cellular CNG Assay” value (PDE4) was “+ (+indicates Activity ≧ 50% at 10 μM)”.

For `N#Cc1sc2nc(C3CC3)cc(-c3ccc(F)cc3)c2c1N` [Example 9, 3-Amino-6-cyclopropyl-4-(4-fluorophenyl)thieno[2,3-b]pyridine-2-carbonitrile], the inhibition at 10 µM (PDE4B) was no less than 50% and the “Cellular CNG Assay” value (PDE4) was “+ (+indicates Activity ≧ 50% at 10 μM)”.

With `COc1ccc(NC(=O)c2ccccc2C(F)(F)F)cc1OC1CCCC1` [Example 12, N-(3-(cyclopentyloxy)-4-methoxyphenyl)-2-(trifluoromethyl)benzamide] the inhibition at 10 µM (PDE4B) was no less than 50% and the “Cellular CNG Assay” value (PDE4) was “+ (+indicates Activity ≧ 50% at 10 μM)”.

In the case of `CCNc1nc(NCC)n2c(SCc3nc4ccccc4c(=O)[nH]3)nnc2n1` [Example 2, 2-((5,7-Bis(ethylamino)-[1,2,4]triazolo[4,3-a][1,3,5]-triazin-3-ylthio)methyl)quinazolin-4(3H)-one], the inhibition at 10 µM (PDE4B) is reported as no less than 50% and the “Cellular CNG Assay” value (PDE4) is reported as “+ (+indicates Activity ≧ 50% at 10 μM)”.

For `Cc1ccc(S(=O)(=O)c2nnn3c2nc(NC(C)C)c2sccc23)cc1` [Example 7, N-isopropyl-3-tosylthieno[2,3-e][1,2,3]triazolo[1,5-a]pyrimidin-5-amine], the inhibition at 10 µM (PDE4B) was no less than 50% and the “Cellular CNG Assay” value (PDE4) was “− (−indicates Activity < 50% at 10 μM)”.

`Cc1c(Cc2ccccc2)c(N2CCNCC2)n2c(nc3ccccc32)c1C#N` [Example 25, 2-Benzyl-3-methyl-1-piperazin-1-yl-benzo[4,5]imidazo[2-a]pyridine-4-carbonitrile] was tested, and the inhibition at 10 µM (PDE4B) was no less than 50% and the “Cellular CNG Assay” value (PDE4) was “− (−indicates Activity < 50% at 10 μM)”.

`C/C(NCCO)=C1\C(=O)N(c2nc3ccccc3s2)N=C1c1ccccc1` [Example 28, (E)-1-(Benzo[d]thiazol-2-yl)-4-(1-(2-hydroxyethylamino)ethylidene)-3-phenyl-1H-pyrazol-5(4H)-one] was tested, and the inhibition at 10 µM (PDE4B) was no less than 50% and the “Cellular CNG Assay” value (PDE4) was “+ (+indicates Activity ≧ 50% at 10 μM)”.

For `COc1ccc(S(=O)(=O)N2CC(C)(C)Oc3ccc(NC(=O)c4ccccc4OC)cc32)cc1OC` [Example 11, N-(4-(3,4-dimethoxyphenylsulfonyl)-2,2-dimethyl-3,4-dihydro-2H-benzo[b][1,4]oxazin-6-yl)-2-methoxybenzamide], the inhibition at 10 µM (PDE4B) was no less than 50% and the “Cellular CNG Assay” value (PDE4) was “+ (+indicates Activity ≧ 50% at 10 μM)”.

`CCOC(=O)C1=C(C)N(CC(C)C)C(=O)/C1=C\c1ccc(OC)c(OC)c1` [Example 29, (Z)-Ethyl 4-(3,4-dimethoxybenzylidene)-1-isobutyl-2-methyl-5-oxo-4,5-dihydro-1H-pyrrole-3-carboxylate] was tested, and the inhibition at 10 µM (PDE4B) was no less than 50% and the “Cellular CNG Assay” value (PDE4) was “+ (+indicates Activity ≧ 50% at 10 μM)”.

In the case of `CCOc1ccccc1C(=O)Nc1c2c(nn1-c1cccc(Cl)c1)CS(=O)(=O)C2` [Example 14], the inhibition at 10 µM (PDE4B) is reported as no less than 50% and the “Cellular CNG Assay” value (PDE4) is reported as “− (−indicates Activity < 50% at 10 μM)”.

Molecule `COc1ccc(-c2cn3ccnc3c(NCc3ccccc3)n2)cc1OC` [Example 24, N-benzyl-6-(3,4-dimethoxyphenyl)imidazo[1,2-a]pyrazin-8-amine] has an inhibition at 10 µM (PDE4B) of no less than 50%.

`COc1ccc(-c2cnnn2-c2ccc(NC(=O)c3c(F)cccc3F)cc2)cc1OC` [Example 22, N-(4-(5-(3,4-dimethoxyphenyl)-1H-1,2,3-triazol-1-yl)phenyl)-2,6-difluorobenzamide] was tested, and the inhibition at 10 µM (PDE4B) was no less than 50% and the “Cellular CNG Assay” value (PDE4) was “+ (+indicates Activity ≧ 50% at 10 μM)”.

With `NC(=O)CSc1nc2sc3c(c2c(=O)n1C1CCCC1)CCCC3` [Example 1, 2-(3-Cyclopentyl-4-oxo-3,4,5,6,7,8-hexahydro-benzo[4]thieno[2,3-d]pyrimidin-2-ylsulfanyl)-acetamide] the inhibition at 10 µM (PDE4B) was no less than 50% and the “Cellular CNG Assay” value (PDE4) was “+ (+indicates Activity ≧ 50% at 10 μM)”.

With `COc1ccc(CN(C)C(=O)c2cnn(-c3nccc(-c4cccs4)n3)c2C)cc1OC` [Example 5, N-(3,4-dimethoxybenzyl)-N,5-dimethyl-1-(4-(thiophen-2-yl)pyrimidin-2-yl)-1H-pyrazole-4-carboxamide] the inhibition at 10 µM (PDE4B) was no less than 50% and the “Cellular CNG Assay” value (PDE4) was “+ (+indicates Activity ≧ 50% at 10 μM)”.
